From patent publication US9795672B2, “Treatment with anti-VEGF antibodies” (Genentech, Inc., priority 2003, dated 2017)
Marks after values point to notes of the source that are not given here.

Experiments:
[1] = tested on: metastatic colorectal cancer; experiment: Phase II randomized trial, bevacizumab added to bolus 5-FU/LV, first-line, non-optimal candidates for irinotecan: efficacy and quality of life; assay type: in vivo, human
Text: Patients with histologically confirmed, previously untreated, measurable metastatic colorectal cancer were eligible if, in the judgment of the investigator, they were not optimal candidates for first-line irinotecan-containing therapy and had at least one of the following characteristics: age above 65 years, ECOG PS of 1 or 2, serum albumin equal or less than 3.5 g/dL, or prior radiotherapy to abdomen or pelvis. […] All patients provided written informed consent for their participation.
A dynamic randomization algorithm was utilized to achieve balance overall and within each of the following categories: study center, baseline ECOG performance status (0 vs. ≧1), site of primary disease (colon vs. rectum), and number of metastatic sites (1 vs. >1). The 5-FU/LV treatment, comprising LV 500 mg/m^2 over 2 hours and 5-FU 500 mg/m^2 as a bolus midway through the LV infusion (Roswell Park regimen; Petrelli et al. (1989) J. Clin. Oncol. 7:1419-1426), was administered weekly for the first 6 weeks of each 8-week cycle. Chemotherapy was continued until study completion (96 weeks) or disease progression. […] At the time of disease progression, patients were unblinded to their treatment assignment and could receive any second-line treatment at the discretion of the investigator. […] After completing the study, patients were followed for any subsequent treatment and survival every 4 months until death, loss to follow-up, or termination of the study.
Patients underwent an assessment of tumor status at baseline and at completion of every 8-week cycle using appropriate radiographic techniques, typically spiral CT scanning. Tumor response, or progression, was determined by both the investigator and an independent radiology facility (IRF) utilizing the Response Evaluation Criteria in Solid Tumors. Therasse et al. (2000). The IRF assessment was performed without knowledge of the treatment assignment or investigator assessment. In addition, patients completed the Functional Assessment of Cancer Therapy—Colorectal (FACT-C), Version 4, a validated instrument for assessing quality of life (QOL) in colorectal cancer patients, at baseline and prior to each treatment cycle until disease progression. Ward et al. (1999) Qual. Life Res. 8:181-195.
The primary outcome measure was duration of overall survival. Secondary outcome measures included progression-free survival, objective response rate (complete and partial), response duration, and change in the FACT-C QOL score. Survival duration was defined as the time from randomization to death. For patients alive at the time of analysis, duration of survival was censored at the date of last contact. Progression-free survival was defined as the time from randomization to the earlier of disease progression or death on study, defined as death from any cause within 30 days of the last dose of study drug or chemotherapy. For patients alive without disease progression at the time of analysis, progression-free survival was censored at their last tumor assessment, or day 1 (the first day of study treatment) if no postbaseline assessment was performed. In the analysis of objective response, patients without tumor assessments were categorized as nonresponders. Disease progression and response analyses were based on the IRF assessments. Change in quality of life was analyzed as time to deterioration in QOL (TDQ), defined as the length of time from randomization to a the earliest of a ≧3-point decrease from baseline in colon-cancer specific FACT-C subscale score (CCS), disease progression, or death on study. TDQ was also determined for the TOI-C (sum of CCS, physical and functional well-being) and total FACT-C for changes from baseline of 7 and 9 points, respectively.
A two-tailed, log-rank test at the 0.05 level of significance with 80% power and two interim analyses were assumed in the calculations. Interim analyses were conducted by an unblinded, independent Data Monitoring Committee (DMC).

[2] = tested on: CRC; details: retrospective subset analysis; cited from earlier work
[3] = tested on: metastatic colorectal cancer; experiment: Phase II randomized trial, bevacizumab added to bolus 5-FU/LV: safety; assay type: in vivo
Method: Safety was assessed from reports of adverse events, laboratory test results, and vital sign measurements. Adverse events and abnormal laboratory results were categorized using the National Cancer Institute Common Toxicity Criteria (NCI-CTC), Version 2.
A two-tailed, log-rank test at the 0.05 level of significance with 80% power and two interim analyses were assumed in the calculations. Interim analyses were conducted by an unblinded, independent Data Monitoring Committee (DMC). A safety interim analysis was conducted after 44 deaths and a second safety and efficacy interim analysis was conducted after 89 deaths. The interim efficacy analysis was governed by a formal group sequential stopping rule based on an O'Brien-Fleming spending function. Kaplan-Meier methodology was applied to estimate the median survival, progression free survival, and duration of response time for each treatment group. […] A two-sided stratified log rank test was used to compare the two groups. Stratified analyses included baseline ECOG performance status, site of primary disease, and the number of metastatic sites. Objective response rates were compared by the Chi-squared test. As exploratory analyses, the Cox proportional hazards model was used to estimate the effect of risk factors on modifications of treatment effect for duration of survival and progression-free survival. Efficacy analyses were performed on the intent-to-treat population, defined as all randomized patients. Safety analyses included all patients who received at least one dose of study drug.

[4] = tested on: metastatic colorectal cancer; details: patients who progressed following 5-FU therapy; cited from earlier work
[5] = tested on: metastatic colorectal cancer; experiment: Phase III randomized trial, bevacizumab added to bolus IFL, first-line: efficacy; assay type: in vivo, human; details: for Overall response rate: complete and partial responses, RECIST; for Median duration of response: in vivo; for Progression-free survival: median; for Median survival: overall survival, primary end point, bevacizumab 5 mg/kg every 2 wk or placebo with IFL
Text: The trial enrolled over 900 patients with histologically confirmed, previously untreated, bi-dimensionally measurable metastatic colorectal cancer.
Eligible patients had histologically confirmed metastatic colorectal carcinoma, with bidimensionally measurable disease. Other inclusion criteria included an age of at least 18 years, an Eastern Cooperative Oncology Group (ECOG) performance status of 0 or 1 (Oken et al. (1982) Am. J. Clin. Oncol. 5:649-55), a life expectancy of more than three months, and written informed consent. Adequate hematologic, hepatic, and renal function (including urinary excretion of no more than 500 mg of protein per day) was also required.
Exclusion criteria included prior chemotherapy or biologic therapy for metastatic disease (adjuvant or radiosensitizing use of fluoropyrimidines with or without leucovorin or levamisole more than 12 months before study entry was permitted), receipt of radiotherapy within 14 days before the initiation of study treatment, major surgery within 28 days before the initiation of study treatment, clinically significant cardiovascular disease, clinically detectable ascites, pregnancy or lactation, regular use of aspirin (more than 325 mg per day) or other nonsteroidal […] agents, preexisting bleeding diatheses or coagulopathy or the need for full-dose anticoagulation, and known central nervous system metastases.
Eligible patients were assigned to treatment with the use of a dynamic randomization algorithm that was designed to achieve overall balance between groups; randomization was stratified according to study center, baseline ECOG performance status (0 vs. 1), site of primary disease (colon vs. rectum), and number of metastatic sites (one vs. more than one).
Tumor responses and progression were determined with the use of the Response Evaluation Criteria in Solid Tumors. Therasse et al. (2000) J. Natl. Cancer Inst. 92:205-16. […] No crossovers were allowed in the group given IFL plus placebo.
Bevacizumab (or placebo) was administered concomitantly with chemotherapy. […] Standard intracycle and intercycle dose modifications of irinotecan and fluorouracil (according to the package insert)’ were permitted in patients with treatment-related adverse events. The doses of leucovorin and bevacizumab were not altered.
After the baseline evaluation, tumor status was assessed every 6 weeks for the first 24 weeks of the study and then every 12 weeks for the remainder of therapy. All complete and partial responses required confirmation at least four weeks after they were first noted.
The primary outcome measure was the duration of overall survival; survival was measured without regard to subsequent treatments. There was no crossover between groups, however. Survival analysis techniques such as the Kaplan-Meier method, log-rank test, and Cox proportional hazards model were used. Secondary outcome measures were progression-free survival, objective response rates (complete and partial responses), the duration of responses, and the quality of life.
For patients who were alive at the time of analysis, data on survival were censored at the time of the last contact. […] For patients without disease progression at the time of the final analysis, data on progression-free survival were censored at the last assessment of tumor status or on day 0 if no further assessment was performed after baseline. Patients without adequate follow-up data were categorized as having no response.
All calculations were performed with the log-rank test and involved two-sided P values, with an alpha value of 0.05, a statistical power of 80 percent, and one interim analysis of efficacy.
(§1) Efficacy analyses were performed according to the intention-to-treat principle. Safety analyses included all patients who received at least one dose of study medication.

[6] = tested on: metastatic colorectal cancer; experiment: Phase III randomized trial, bevacizumab added to bolus IFL: safety (adverse events, NCI Common Toxicity Criteria v2); assay type: in vivo
Method: Safety was assessed on the basis of reports of adverse events, laboratory-test results, and vital sign measurements. Adverse events were categorized according to the Common Toxicity Criteria of the National Cancer Institute, version 2, in which a grade of 1 indicates mild adverse events, a grade of 2 moderate adverse events, a grade of 3 […] adverse events, and a grade of 4 life-threatening adverse events.
as §1

[7] = addition of bevacizumab compared with 5-FU/LV alone

Molecule: 5-FU/LV/Bevacizumab: 5-fluorouracil and leucovorin (Roswell Park regimen) given with bevacizumab 5 mg/kg every 2 weeks
- Median time to deterioration in QOL (TDQ), CCS score ([1]; FACT-C colon-cancer specific subscale): 3.1 months
- Overall response rate ([1]; IRF assessment): 26.0%
- Duration of response ([1]; median): 9.2 months
- Progression-free survival ([1]; median, IRF assessment): 9.2 months
- Median survival ([1]; overall survival, primary endpoint, intent-to-treat, bevacizumab 5 mg/kg every 2 weeks or placebo with 5-FU/LV (Roswell Park)): 16.6 months
- Complete response ([1]; part of overall response rate): 0%
- Partial response ([1]; part of overall response rate): 26.0%
- Median TDQ, TOI-C ([1]; secondary TDQ measure): 3.2 months
- Median TDQ, total FACT-C ([1]; secondary TDQ measure): 3.6 months
- Median survival, subset aged ≧65 years [2]: 17.7 months
- Median survival, subset with baseline PS 1 or 2 [2]: 15.2 months
- Median survival, subset with serum albumin<3.5 [2]: 14.1 months
- 60-day all-cause mortality ([3]; in vivo): 5.0%
- Arterial thrombotic events, number of patients ([3]; in vivo): 10 patients
- Bowel perforation event, number of patients ([3]; in vivo): Two
- Incidence of arterial thrombotic events ([3]; in vivo): 10%
- Proteinuria of any grade ([3]; in vivo): 38%
- Total grade 3 and 4 toxicities ([3]; safety population): 87%

Molecule: CCc1c2c(nc3ccc(OC(=O)N4CCC(N5CCCCC5)CC4)cc13)-c1cc3c(c(=O)n1C2)COC(=O)[C@]3(O)CC [irinotecan]
- Prolongation of survival vs best supportive care [4]: 2.8 month
- Prolongation of survival vs infusional 5-FU [4]: 2.2 month

Molecule: IFL plus Bevacizumab: regimen of irinotecan, fluorouracil and leucovorin (IFL) given with bevacizumab 5 mg/kg every 2 wk
- Absolute improvement in the response rate ([5]; IFL plus bevacizumab vs IFL alone): 10%
- Reduction in the risk of death ([5]; bevacizumab group vs IFL plus placebo): 34%
- Overall response rate [5]: 44.8%
- Median duration of response [5]: 10.4 mo
- One-year survival rate ([5]; intention-to-treat): 74.3%
- Progression-free survival ([5]; intention-to-treat): 10.6 mo
- Median survival ([5]; intention-to-treat): 20.3 mo
- Complete response ([5]; part of overall response rate): 3.7%
- Partial response ([5]; part of overall response rate): 41.0%
- Median duration of overall survival, subgroup with second-line oxaliplatin ([5]; patients who received second-line treatment with oxaliplatin): 25.1 months
- Adverse event leading to hospitalization ([6]; in vivo): 44.9%
- Any grade 3 or 4 adverse event ([6]; in vivo): 84.9** percent
- Any thrombotic event ([6]; in vivo): 19.4%
- Cases of grade 4 bleeding ([6]; in vivo): three
- Deep thrombophletitis ([6]; in vivo): 8.9%
- Gastrointestinal perforation ([6]; in vivo): 1.5%
- Gastrointestinal perforation, number of patients ([6]; in vivo): six
- Grade 3 or 4 bleeding ([6]; in vivo): 3.1%
- Grade 3 or 4 leukopenia ([6]; in vivo): 37.0%
- Hypertension, Any ([6]; in vivo): 22.4** percent
- Incidence of arterial thrombotic events ([6]; in vivo): 3.3%
- Proteinuria, Any ([6]; in vivo): 26.5%
- Proteinuria, Grade 2 ([6]; in vivo): 3.1%
- Proteinuria, Grade 3 ([6]; in vivo): 0.8%
- Pulmonary embolus ([6]; in vivo): 3.6%
- Adverse event leading to death ([6]; incidence): 2.6%
- Death within 60 days ([6]; incidence): 3.0%

Molecule: bevacizumab: recombinant humanized anti-VEGF monoclonal antibody generated according to Presta et al. (1997)
- Effect on quality of life ([1]; FACT-C): no detrimental effect
- Prolongation of median survival [1, 7]: 3.7 months
- Prolongation of progression-free survival [1, 7]: 3.7 months
- Prolongation of response duration [1, 7]: 2.4 months
- Increase in the median duration of survival attributable to bevacizumab ([5]; IFL plus bevacizumab vs IFL plus placebo): 4.7 months
- Overall response rate [5]: 44.8%
- Median duration of response [5]: 10.4 mo
- Progression-free survival ([5]; intention-to-treat): 10.6 mo
- Median survival ([5]; intention-to-treat): 20.3 mo
